The structures appear in SMILES notation. Bounds are passed on as bounds.

Data on two molecules can be found in article PMC8540953, “Preparation and Pharmacokinetic Characterization of an Anti-Virulence Compound Nanosuspensions” (Pharmaceutics, 2021).

A short description of series [1]: In vitro dissolution in 0.5% SDS solution. Format: physicochemical. Particulars: 37 °C, 75 rpm. On the procedure: The concentrations of CCG-211790 nanosuspensions were measured using an Agilent series 1100 HPLC system (Agilent Technologies, Santa Clara, CA, USA) equipped with a diode array detector. Sample separation was carried out with a Kinetex C18 column (75 mm × 3 mm, particle size 2.6 µm, Phenomenex, Torrance, CA, USA). The mobile phase was acetonitrile-water (50:50, v/v), flow rate was set to 0.5 mL/min, and column temperature to 35 °C. The injection volume was 30 µL. The absorption wavelength was set at 255 nm. CCG-211790 nanoparticles were dissolved in the mobile phase for HPLC analysis. Due to the fact that the analyte concentration was high and no other matrix was present in the sample, the HPLC method performed very well with excellent calibration linearity, reproducibility, and spike recovery. During sample analysis, ongoing quality controls were performed including a reagent blank, a duplicate sample, and spike recovery samples for every 10 samples analyzed.
The in vitro dissolution profiles of CCG-211790 bulk powder, NanoA and NanoB suspensions were examined. SDS is one of the most frequently used artificial surfactants in dissolution test to establish sink conditions for water-insoluble drugs. Therefore, a SDS solution (0.5% w/v in water) was used as the dissolution medium in this study. In each dissolution test, suspension or powder equivalent to 4 mg of CCG-211790 were directly dispersed in 500 mL dissolution medium under magnetic stirring at 75 rpm. The temperature of the dissolution medium was maintained at 37 ± 1 °C in a water bath. Sample aliquots (3 mL) were withdrawn at predetermined time points (5, 10, 20, 30, 45, and 60 min) and immediately replaced with 3 mL of fresh dissolution medium to readjust the volume to 500 mL. Undissolved particles were separated by centrifugation at 10,000× g for 5 min and the supernatant was collected for HPLC analysis. All experiments were run in triplicate.

The subject of series [2] is methicillin-resistant Staphylococcus aureus (MRSA). Further details: method as in PMID 33556134. Particulars: cited from earlier work.
The conditions of series [3]: cited from earlier work.
A short description of series [4]: Solubility and solution stability of CCG-211790. Format: physicochemical. To be noted: PEG/PG solution, aqueous with cosolvent or surfactant or cyclodextrin; ethanol (10%), propylene glycol (25%), PEG 400 (35%) and water (30%).

As to `COc1ccc2c(c1)-c1nc(SCC(F)(F)F)n(C)c(=O)c1C(C)(C)C2` [CCG-211790 bulk powder], the drug release in series [1] (at 5 min) was found to be 19.6%; in series [1] (at 45 min) it was 63.4%; in series [1] (at 60 min), 64.3%.

A word on the solubility: it is the concentration that dissolves in the medium under given conditions. Consider `COc1ccc2c(c1)-c1nc(SCC(F)(F)F)n(C)c(=O)c1C(C)(C)C2` [CCG-211790, 9-methoxy-3,5,5-trimethyl-2-((2,2,2-trifluoroethyl)thio)-5,6-dihydrobenzo[h]quinazolin-4(3H)-one], for which the “biofilm formation of MRSA” value in series [2] is “inhibited”. In series [3], the aqueous solubility result is “less than 50 ng/mL” and the “solubility in coconut oil” value is “up to 37 mg/mL”. This molecule also showed a solubility in series [4] not above 1 mg/mL.
